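Method: 48-hour compound exposure of cells in 96-well plates, five concentrations, linear interpolation of endpoints. The concentration for 50% growth inhibition is given as GI50.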 Calls of active or inactive are those of the source. Rule as the data show it: active = GI50 up to about 1.1 µM and inactive = higher.
Legend:
Experiment in all cases: growth of human tumour cells (NCI), 48 h
[1] = tested on: DLD-1
[2] = tested on: HOP-18
[3] = tested on: KM-20L2
[4] = tested on: LXFL 529
[5] = tested on: M19-MEL
[6] = tested on: RXF 631
[7] = tested on: SNB-78
[8] = tested on: XF498
[9] = tested on: DMS-273

Compound | GI50 [1] | GI50 [2] | GI50 [3] | GI50 [4] | GI50 [5] | GI50 [6] | GI50 [7] | GI50 [8] | GI50 [9]
O=C(CC1SC(Nc2ccccc2Cl)=NC1=O)Nc1ccc(Cl)cc1Cl (centres undefined) | > 100 µM (inactive) | > 100 µM (inactive) | > 100 µM (inactive) | > 100 µM (inactive) | > 100 µM (inactive) | > 100 µM (inactive) | > 100 µM (inactive) | > 100 µM (inactive) | 
CCC(C)SC1SCC2C(=O)N(C)C3(CC3C)C(=O)OCC(NC(=O)c3nc4ccccc4cc3O)C(=O)NC(C)C(=O)N(C)C1C(=O)N(C)C1(CC1C)C(=O)OCC(NC(=O)c1nc3ccccc3cc1O)C(=O)NC(C)C(=O)N2C (centres undefined) | 0.0002 µM (active) | 0.000232 µM (active) | 0.000137 µM (active) | 3.1e-05 µM (active) | 3.3e-05 µM (active) | 0.000195 µM (active) | 0.01 µM (active) | 5.07e-05 µM (active) | 2.3e-05 µM (active)
CCCN1C(=O)CNC(=O)c2[nH]cnc21 | > 100 µM (inactive) | > 100 µM (inactive) | > 100 µM (inactive) | > 100 µM (inactive) | > 100 µM (inactive) |  | > 100 µM (inactive) | > 100 µM (inactive) | 
CCOC(=O)Cc1nc2ccc3c(c2nc1O)C(=O)c1ccccc1C3=O | 23.7 µM (inactive) | 16 µM (inactive) | > 100 µM (inactive) | 47.9 µM (inactive) | 78.2 µM (inactive) | 39.5 µM (inactive) | 70.5 µM (inactive) | 52.8 µM (inactive) | 40.5 µM (inactive)
O=c1nc(N2CCCC2)nc(N2CCCC2)s1 | > 100 µM (inactive) | > 100 µM (inactive) | > 100 µM (inactive) | > 100 µM (inactive) | > 100 µM (inactive) | > 100 µM (inactive) | > 100 µM (inactive) | > 100 µM (inactive) | > 100 µM (inactive)
CN1N=C(Nc2ccccc2)Sc2c1cnn(-c1ccccc1)c2=O | > 100 µM (inactive) | 20 µM (inactive) | > 100 µM (inactive) | 79.8 µM (inactive) | > 100 µM (inactive) |  |  |  | > 100 µM (inactive)
CSc1ccc2c(cc1=O)C(NC(=O)c1ccc(C#N)cc1)CCc1cc(O)c(O)c(O)c1-2 (centres undefined) | 23.1 µM (inactive) |  | 24.7 µM (inactive) | 19.8 µM (inactive) | 11.9 µM (inactive) | 49.8 µM (inactive) | 5.58 µM (inactive) | 26.8 µM (inactive) | 34.9 µM (inactive)
COc1ccc(C2N3CCCCC3[C@@H]3c4[nH]c5ccccc5c4CCN23)c(OC)c1 (some centres undefined) | 33.4 µM (inactive) | > 100 µM (inactive) | 18.8 µM (inactive) | 21.8 µM (inactive) | 20 µM (inactive) |  | 18.9 µM (inactive) | 14.1 µM (inactive) | 16.4 µM (inactive)
CCc1cc2c(Nc3ccccc3)c3c(nc2s1)CCCC3 | 19.4 µM (inactive) | > 100 µM (inactive) | > 100 µM (inactive) | 14.2 µM (inactive) | 40.7 µM (inactive) | 35.2 µM (inactive) | 28.9 µM (inactive) | 13.4 µM (inactive) | > 100 µM (inactive)
Cc1c2ccncc2c(C)c2c1[nH]c1ccc(OC(C)C)cc12 | 1.35 µM (inactive) | 0.318 µM (active) | 1.18 µM (inactive) | 0.787 µM (active) | 1.71 µM (inactive) |  | 2.89 µM (inactive) | 1.52 µM (inactive) | 0.681 µM (active)
COc1cccc([C@@]2(O)c3c(ccc(O)c3OC)[C@H]2OC)c1OC | 35.7 µM (inactive) |  | 38.9 µM (inactive) | 19.6 µM (inactive) |  |  | 49.7 µM (inactive) |  | 
Cn1cnc(S[C@H]2[C@H]3C(=O)C=C4S[C@H]5C[C@]42C2=C(N5)C(=O)c4[nH]cc5c4C2=[N+]3CC5)c1C[C@H](N)C(=O)O | 17.2 µM (inactive) | 52.1 µM (inactive) | 4.47 µM (inactive) | 14.1 µM (inactive) | 8.73 µM (inactive) |  | 20.9 µM (inactive) | 15.3 µM (inactive) | 12.7 µM (inactive)
COc1ccc(/C=C\c2cc(OC)c(OC)c(OC)c2)cc1OCC(=O)O | 7.45 µM (inactive) | > 100 µM (inactive) | > 100 µM (inactive) | 6.55 µM (inactive) | 4.55 µM (inactive) | > 100 µM (inactive) | 4.17 µM (inactive) |  | 6.22 µM (inactive)
Cc1cnc[nH]c1=O | > 100 µM (inactive) | > 100 µM (inactive) | > 100 µM (inactive) | > 100 µM (inactive) | > 100 µM (inactive) | > 100 µM (inactive) | > 100 µM (inactive) |  | > 100 µM (inactive)
Cc1cc(Cl)ccc1Nc1nc2c(s1)C(=O)c1ccccc1C2=O | 5.45 µM (inactive) | 3 µM (inactive) | 18.9 µM (inactive) | 3.67 µM (inactive) | 0.728 µM (active) | 6.46 µM (inactive) | 14.5 µM (inactive) |  | 2.52 µM (inactive)
O=C(N/N=C/c1ccccc1O)c1cccc([N+](=O)[O-])c1 | 45.7 µM (inactive) | 28.5 µM (inactive) | 8.49 µM (inactive) | 40.8 µM (inactive) | 12.9 µM (inactive) |  | > 86.3 µM (inactive) | 92.3 µM (inactive) | 6.43 µM (inactive)
Cc1ccc(Oc2ccc([N+](=O)[O-])cc2[N+](=O)[O-])c(C)c1 | 56.4 µM (inactive) |  | > 10 µM (inactive) | 41 µM (inactive) | 51.3 µM (inactive) | 21.4 µM (inactive) | 61.4 µM (inactive) | 42.1 µM (inactive) | 28.1 µM (inactive)
COC(=O)C(=O)C(C(=O)C(=O)Nc1ccccc1C(N)=O)c1nc2ccc([N+](=O)[O-])cc2nc1O (centres undefined) | > 100 µM (inactive) | > 100 µM (inactive) | > 100 µM (inactive) | > 100 µM (inactive) | > 100 µM (inactive) | > 100 µM (inactive) | > 100 µM (inactive) | > 100 µM (inactive) | > 100 µM (inactive)
CSc1nc(NC2OCC(OC(C)=O)C(OC(C)=O)C2OC(C)=O)c(/N=C(\C)C(C)=O)c(=O)n1C (centres undefined) | > 100 µM (inactive) | > 100 µM (inactive) | > 100 µM (inactive) | > 100 µM (inactive) | > 100 µM (inactive) | > 100 µM (inactive) | > 100 µM (inactive) | > 100 µM (inactive) | > 100 µM (inactive)
COc1ccc(-c2cc(=O)c3c(O)c(OC)c(O)c(OC)c3o2)cc1OC | 54.8 µM (inactive) | 54.3 µM (inactive) | > 100 µM (inactive) | 61.1 µM (inactive) | > 100 µM (inactive) |  | 42 µM (inactive) | 78.3 µM (inactive) | 54.1 µM (inactive)
CC(=O)OC1CC2C(C)(C)OC(=O)CC(OC(C)=O)[C@]2(C)C2CCC3(C)C(=CCC3c3ccoc3)[C@]12C (some centres undefined) | 13 µM (inactive) |  | 28.1 µM (inactive) | 13.9 µM (inactive) | 17.5 µM (inactive) |  | 48.9 µM (inactive) | 13.8 µM (inactive) | 13.7 µM (inactive)
CCCC1=C(CC)C(C(=O)Nc2c(C)cccc2C)=NC(S)N1 (centres undefined) | > 100 µM (inactive) | > 100 µM (inactive) | > 100 µM (inactive) | > 100 µM (inactive) | > 100 µM (inactive) |  | > 100 µM (inactive) | > 100 µM (inactive) | > 100 µM (inactive)
COC(=O)CCC(=O)CC1CC(=O)C2CCCN12 (centres undefined) | > 100 µM (inactive) | > 100 µM (inactive) | > 100 µM (inactive) | > 100 µM (inactive) | > 100 µM (inactive) |  | > 100 µM (inactive) | > 100 µM (inactive) | > 100 µM (inactive)
O=C1NC2C(=O)N(Cc3ccccc3)C(=O)C2N1 (centres undefined) | > 100 µM (inactive) |  | > 100 µM (inactive) | > 100 µM (inactive) | > 100 µM (inactive) |  | > 100 µM (inactive) | > 100 µM (inactive) | 
O=S(=O)(NCn1ccc2ccccc21)c1ccccc1 | 40.9 µM (inactive) | > 100 µM (inactive) | > 100 µM (inactive) | > 100 µM (inactive) | > 100 µM (inactive) | > 100 µM (inactive) | > 53.1 µM (inactive) | > 100 µM (inactive) | > 64.3 µM (inactive)
Nc1cc2c3c(cccc3c1)C(=O)N(CCN1CCN(CCN3C(=O)c4cccc5cc(N)cc(c45)C3=O)CC1)C2=O |  | > 100 µM (inactive) | > 100 µM (inactive) | 67 µM (inactive) | > 100 µM (inactive) | > 100 µM (inactive) |  | > 100 µM (inactive) | > 100 µM (inactive)
CN(C)CC1CCCCCCCCCCCCC(CN(C)C)C1=O (centres undefined) | 15.6 µM (inactive) | 16.2 µM (inactive) | 11.9 µM (inactive) | 14.9 µM (inactive) | 12.6 µM (inactive) |  | 13.5 µM (inactive) |  | 10.4 µM (inactive)
O=C1OC(c2ccccc2)=N/C1=C\c1cc(Cl)ccc1Cl | 33.8 µM (inactive) | > 100 µM (inactive) | > 100 µM (inactive) | 28.5 µM (inactive) | > 100 µM (inactive) | 25 µM (inactive) | 44.5 µM (inactive) |  | 
CCCCCCCCCCCCCCCCCc1nnc(N)o1 | > 100 µM (inactive) |  | > 100 µM (inactive) | > 100 µM (inactive) | > 100 µM (inactive) | > 100 µM (inactive) | > 100 µM (inactive) | > 100 µM (inactive) | > 100 µM (inactive)
COC(=O)C12CC3CC(C1)CC(C(=O)OC)(C3)C2 | > 100 µM (inactive) | > 100 µM (inactive) | > 100 µM (inactive) | > 100 µM (inactive) | > 100 µM (inactive) |  | > 100 µM (inactive) | > 100 µM (inactive) | > 100 µM (inactive)

— ChEMBL document CHEMBL1201862, “PubChem BioAssay data set” (2004)
